“Also recorded” adds a separate entry of the source.
How the values were obtained:
α-toxin heptamer = α-toxin heptamer (Staphylococcus aureus, UniProt P09616); conditions: literature; cited from earlier work
S. aureus strain 8325-4 = test: Experimental keratitis in rabbits, S. aureus strain 8325-4, topical treatment; format: in vivo, Staphylococcus aureus; conditions: rabbit eyes
Protocol: FIG. 4 is a set of graphs that show the effect of CD-cholesterol treatment of eyes infected with strain 8325-4. Rabbit corneas were injected with 10^2 CFU of S. aureus 8325-4. Eyes were randomized and treated with 1% CD-cholesterol, 1% CD, or PBS from 7 to 13 hours PI. At 7 hours PI, eyes were treated with a single topical drop every 15 minutes from 7 to 8 hours PI. At 8.5 hours PI, eyes were treated with a single topical drop every 30 minutes until 13 hours PI (a total of 15 drops). At 13 hours PI, the eyes were evaluated by SLE (A) and erosion diameters were measured using fluorescein strips (B) The pathologic changes were observed then averaged and statistical comparisons were performed using one-way ANOVA. The erosions were averaged and statistical comparisons using analysis of variance and Student's t-test were performed. Error bars are the standard error of the mean (SEM). P≦0.05, for either test, was considered significant. […] The eyes treated with 1% CD or with PBS had statistically similar SLE scores (P=0.4002). […] The eyes treated with 1% CD-cholesterol or 1% CD had erosion diameters similar to one another (P=0.4002).
(§1) Rabbits (n≧4 eyes per group) were infected as previously described, injecting approximately 100 colony forming units (CFU) of strain 8325-4 or strain 60171, a clinical isolate, in 10 μL of TSB into the stroma of the cornea. Accuracy of the inoculum size was verified by plating aliquots (100 μL) of serial dilutions in triplicate on TSA.
At 7 hours postinfection (PI), treatment began and consisted of a single topical drop of PBS, 1% CD, or 1% CD-cholesterol every 15 minutes from 7 to 8 hours PI. Then, beginning at 8.5 hours PI, a single drop was administered every 30 minutes until 13 hours PI; a total of 15 drops per eye. At 13 hours PI, corneal erosions were measured and all eyes underwent slit lamp examination (SLE) to quantify pathologic changes. […]
Corneas of rabbits infected with either S. aureus 8325-4 or 60171 were harvested at 14 hours PI and bacteria were quantified as described previously. […]

α-toxin [1] = biological target: T1, α-toxin (Staphylococcus aureus, UniProt P09616); format: cell-based
S. aureus strain 60171 = test: Experimental keratitis in rabbits, S. aureus clinical isolate 60171, topical treatment; format: in vivo, Staphylococcus aureus; conditions: rabbit eyes
Protocol: FIG. 5 is a set of graphs that show the effect of CD-cholesterol treatment of eyes infected with strain 60171. Eyes were treated and evaluated as described for FIG. 3. Error bars are the SEM. […] In contrast, the CD-treated eyes had similar SLE scores compared to the PBS-treated eyes (P=0.7403). […] There was no statistical difference between the eyes treated with 1% CD and the eyes treated with PBS (P=0.2131).
as §1
At 7 hours postinfection (PI), treatment began and consisted of a single topical drop of PBS, 1% CD, or 1% CD-cholesterol every 15 minutes from 7 to 8 hours PI. Then, beginning at 8.5 hours PI, a single drop was administered every 30 minutes until 13 hours PI; a total of 15 drops per eye. At 13 hours PI, corneal erosions were measured and all eyes underwent slit lamp examination (SLE) to quantify pathologic changes.
SLE of pathologic changes of rabbit eyes was performed by two masked observers as described previously.
Corneas of rabbits infected with either S. aureus 8325-4 or 60171 were harvested at 14 hours PI and bacteria were quantified as described previously.
These finding raised the possibility that CD-cholesterol could treat corneas infected with S. aureus. Rabbit corneas were injected with either S. aureus strain 8325-4 or S. aureus clinical isolate 60171. Rabbit eyes were treated from 7 to 13 hours PI with PBS, 1% CD, or 1% CD-cholesterol. […]
Strain 60171, an ocular clinical isolate, was injected into the corneas of rabbits to determine the effectiveness of treatments with CD-cholesterol, CD, or PBS. As described above, the pathologic changes and erosion development were observed via SLE at 13 hours PI (FIG. 2B) whereas the number of surviving bacteria was determined at 14 hours PI.

α-toxin [2] = biological target: T1, α-toxin; conditions: cited from earlier work
[3] = 1% topical drops 7 to 13 hours PI (15 drops), 13 hours PI
[4] = 1% topical drops 7 to 13 hours PI, 13 hours PI
[5] = 1% topical drops 7 to 13 hours PI, 14 hours PI

T1 sequence (P09616 27-319 limits assumed): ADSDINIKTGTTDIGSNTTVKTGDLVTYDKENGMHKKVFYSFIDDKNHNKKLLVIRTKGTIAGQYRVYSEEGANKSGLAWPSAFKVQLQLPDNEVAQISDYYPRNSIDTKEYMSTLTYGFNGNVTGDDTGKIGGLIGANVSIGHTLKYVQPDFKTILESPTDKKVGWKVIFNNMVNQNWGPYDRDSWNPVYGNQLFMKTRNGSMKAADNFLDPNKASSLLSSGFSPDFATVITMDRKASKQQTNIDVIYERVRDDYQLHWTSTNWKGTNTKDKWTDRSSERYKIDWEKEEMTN
Chain of α-toxin heptamer (P09616 27-319 limits assumed): as above

methyl-β-cyclodextrin [CD]
binding to the pore of α-toxin heptamer (α-toxin heptamer): bind weakly | average SLE score (S. aureus strain 8325-4; [3]): 9.23±0.39 | corneal erosion diameter (S. aureus strain 8325-4; [4]): 4.55±0.28 mm | number of surviving S. aureus (S. aureus strain 8325-4; [5]): 9.36×10^6±4.22×10^5 bacteria per cornea | reduction in α-toxin hemolytic titer (α-toxin [1]): twofold; also recorded: two-fold | average SLE score (S. aureus strain 60171; [3]): 9.02±0.90 | diameter of corneal epithelial erosions (S. aureus strain 60171; [4]): 4.83±0.31 mm | bacteria in the corneas (S. aureus strain 60171; [5]): 2.42×10^7±8.96×10^6 bacteria

C[C@]12CCC(=O)C=C1CC[C@@H]1[C@@H]2[C@@H](O)C[C@@]2(C)[C@H]1CC[C@]2(O)C(=O)CO [hydrocortisone]
inhibition of α-toxin activity (α-toxin [2]): weakly inhibited
